Experimental data from patent US10253039B2, “Inhibitors of bacterial DNA gyrase with efficacy against gram-negative bacteria” (priority 2014, dated 2019).
In brackets after ≈: the same amount, converted by molar mass.

Test system: Streptococcus agalactiae
Assay: MIC, 20-strain panel
Assay type: cell-based
Details: not given
Description: (§1) A microdilution method in 96-well plates was used and the MIC protocol established by the Clinical Laboratory Standards Institute was followed. From a growing subculture, a 1:10000 inoculum of each strain in Luria-Bertani media was prepared and aliquoted 100 μL in 4 columns of wells, except for the top row wells, which contained 200 μL of inoculum. A solution of gyramide C2 was aliquoted into 3 of the wells containing 200 μL and DMSO was added to the 4th well. The liquid in each of wells was mixed with a multi-channel pipet and 100 μL was transferred to the next well and mixed. The 2-fold dilution was continued down the 96-well plate until 100 μL was left, which was discarded. The plates were incubated at 37° C. with shaking for 16-18 hours. The MIC was determined as the lowest concentration that inhibited growth and had no turbidity by visual inspection.
(§2) Minimum inhibitory concentrations of various gyramide compounds against 20 strains of bacteria were determined using the procedure described above.

Row | Compound | MIC [µg/mL]
1 | Cc1ccc(S(C)(=O)=O)cc1S(=O)(=O)N[C@@H]1CCN(Cc2ccc(OC(C)C)cc2)C1 [Compound 72] | > 8
2 | Cc1ccc(S(=O)(=O)N[C@@H]2CCN(Cc3ccc(OC4CC4)cc3)C2)cn1 [Compound 175] | > 8
3 | Cc1ccc(S(=O)(=O)N[C@@H]2CCN(Cc3ccc(OC(C)C)cc3)C2)cc1C#N [Compound 161] | > 8
4 | N#Cc1cccc(S(=O)(=O)N[C@@H]2CCN(Cc3ccc(SC(F)(F)F)cc3)C2)c1 [Compound 20] | > 8
5 | CC(C)Oc1ccc(CN2CC[C@@H](NS(=O)(=O)c3cnc4ccsc4c3)C2)cc1 [Compound 164] | > 8

Test system: Shigella flexneri
Assay: MIC, 20-strain panel
Assay type: cell-based
Details: not given
Description: as §1, §2

Row | Compound | MIC [µg/mL]
6 | Cc1ccc(S(=O)(=O)N[C@@H]2CCN(Cc3ccc(OC4CC4)cc3)C2)cn1 [Compound 175] | > 8
7 | Cc1ccc(S(=O)(=O)N[C@@H]2CCN(Cc3ccc(OC(C)C)cc3)C2)cc1C#N [Compound 161] | > 8
8 | CC(C)Oc1ccc(CN2CC[C@@H](NS(=O)(=O)c3cnc4ccsc4c3)C2)cc1 [Compound 164] | > 8

Same assay, conditions: G: Shigella flexneri

Row | Compound | MIC [µg/mL]
9 | Cc1ccc(S(C)(=O)=O)cc1S(=O)(=O)N[C@@H]1CCN(Cc2ccc(OC(C)C)cc2)C1 [Compound 72] | > 8
10 | N#Cc1cccc(S(=O)(=O)N[C@@H]2CCN(Cc3ccc(SC(F)(F)F)cc3)C2)c1 [Compound 20] | > 8

Test system: Staphylococcus epidermidis
Assay: MIC, 20-strain panel
Assay type: cell-based
Details: not given
Description: as §1, §2

Row | Compound | MIC [µg/mL]
11 | Cc1ccc(S(C)(=O)=O)cc1S(=O)(=O)N[C@@H]1CCN(Cc2ccc(OC(C)C)cc2)C1 [Compound 72] | > 8
12 | Cc1ccc(S(=O)(=O)N[C@@H]2CCN(Cc3ccc(OC4CC4)cc3)C2)cn1 [Compound 175] | > 8
13 | Cc1ccc(S(=O)(=O)N[C@@H]2CCN(Cc3ccc(OC(C)C)cc3)C2)cc1C#N [Compound 161] | > 8
14 | N#Cc1cccc(S(=O)(=O)N[C@@H]2CCN(Cc3ccc(SC(F)(F)F)cc3)C2)c1 [Compound 20] | > 8
15 | CC(C)Oc1ccc(CN2CC[C@@H](NS(=O)(=O)c3cnc4ccsc4c3)C2)cc1 [Compound 164] | > 8

Test system: E. coli JW5503 (deltolC)
Assay: MIC, 20-strain panel
Assay type: cell-based
Details: Escherichia coli, C: E. coli JW5503 (deltolC)
Description: as §1, §2

Row | Compound | MIC [µg/mL]
16 | Cc1ccc(S(C)(=O)=O)cc1S(=O)(=O)N[C@@H]1CCN(Cc2ccc(OC(C)C)cc2)C1 [Compound 72] | > 8
17 | N#Cc1cccc(S(=O)(=O)N[C@@H]2CCN(Cc3ccc(SC(F)(F)F)cc3)C2)c1 [Compound 20] | 8 (≈ 18.1 µM)

Same assay, conditions: Escherichia coli, E. coli JW5503 (deltolC)

Row | Compound | MIC [µg/mL]
18 | Cc1ccc(S(=O)(=O)N[C@@H]2CCN(Cc3ccc(OC4CC4)cc3)C2)cn1 [Compound 175] | > 8
19 | Cc1ccc(S(=O)(=O)N[C@@H]2CCN(Cc3ccc(OC(C)C)cc3)C2)cc1C#N [Compound 161] | > 8
20 | CC(C)Oc1ccc(CN2CC[C@@H](NS(=O)(=O)c3cnc4ccsc4c3)C2)cc1 [Compound 164] | > 8

Test system: Streptococcus pyogenes
Assay: MIC, 20-strain panel
Assay type: cell-based
Details: not given
Description: as §1, §2

Row | Compound | MIC [µg/mL]
21 | Cc1ccc(S(C)(=O)=O)cc1S(=O)(=O)N[C@@H]1CCN(Cc2ccc(OC(C)C)cc2)C1 [Compound 72] | > 8
22 | Cc1ccc(S(=O)(=O)N[C@@H]2CCN(Cc3ccc(OC4CC4)cc3)C2)cn1 [Compound 175] | > 8
23 | Cc1ccc(S(=O)(=O)N[C@@H]2CCN(Cc3ccc(OC(C)C)cc3)C2)cc1C#N [Compound 161] | > 8
24 | N#Cc1cccc(S(=O)(=O)N[C@@H]2CCN(Cc3ccc(SC(F)(F)F)cc3)C2)c1 [Compound 20] | > 8
25 | CC(C)Oc1ccc(CN2CC[C@@H](NS(=O)(=O)c3cnc4ccsc4c3)C2)cc1 [Compound 164] | > 8

Test system: Staphylococcus aureus subsp. aureus
Assay: MIC, 20-strain panel
Assay type: cell-based
Details: H: Staphylococcus aureus subsp. aureus, read-out: MIC
Description: as §1, §2

Row | Compound | MIC [µg/mL]
26 | Cc1ccc(S(C)(=O)=O)cc1S(=O)(=O)N[C@@H]1CCN(Cc2ccc(OC(C)C)cc2)C1 [Compound 72] | > 8
27 | N#Cc1cccc(S(=O)(=O)N[C@@H]2CCN(Cc3ccc(SC(F)(F)F)cc3)C2)c1 [Compound 20] | > 8

Same assay, conditions: Staphylococcus aureus subsp. aureus, read-out: MIC

Row | Compound | MIC [µg/mL]
28 | Cc1ccc(S(=O)(=O)N[C@@H]2CCN(Cc3ccc(OC4CC4)cc3)C2)cn1 [Compound 175] | > 8
29 | Cc1ccc(S(=O)(=O)N[C@@H]2CCN(Cc3ccc(OC(C)C)cc3)C2)cc1C#N [Compound 161] | > 8
30 | CC(C)Oc1ccc(CN2CC[C@@H](NS(=O)(=O)c3cnc4ccsc4c3)C2)cc1 [Compound 164] | > 8

Test system: Klebsiella pneumoniae subsp. pneumoniae
Assay: MIC, 20-strain panel
Assay type: cell-based
Details: E: Klebsiella pneumoniae subsp. pneumoniae
Description: as §1, §2

Row | Compound | MIC [µg/mL]
31 | Cc1ccc(S(C)(=O)=O)cc1S(=O)(=O)N[C@@H]1CCN(Cc2ccc(OC(C)C)cc2)C1 [Compound 72] | > 8
32 | N#Cc1cccc(S(=O)(=O)N[C@@H]2CCN(Cc3ccc(SC(F)(F)F)cc3)C2)c1 [Compound 20] | > 8

Same assay, conditions: Klebsiella pneumoniae subsp. pneumoniae

Row | Compound | MIC [µg/mL]
33 | Cc1ccc(S(=O)(=O)N[C@@H]2CCN(Cc3ccc(OC4CC4)cc3)C2)cn1 [Compound 175] | > 8
34 | Cc1ccc(S(=O)(=O)N[C@@H]2CCN(Cc3ccc(OC(C)C)cc3)C2)cc1C#N [Compound 161] | > 8
35 | CC(C)Oc1ccc(CN2CC[C@@H](NS(=O)(=O)c3cnc4ccsc4c3)C2)cc1 [Compound 164] | > 8

Test system: Salmonella enterica subsp. enterica typhimurium
Assay: MIC, 20-strain panel
Assay type: cell-based
Details: F: Salmonella enterica subsp. enterica Typhimurium
Description: as §1, §2

Row | Compound | MIC [µg/mL]
36 | Cc1ccc(S(C)(=O)=O)cc1S(=O)(=O)N[C@@H]1CCN(Cc2ccc(OC(C)C)cc2)C1 [Compound 72] | > 8
37 | N#Cc1cccc(S(=O)(=O)N[C@@H]2CCN(Cc3ccc(SC(F)(F)F)cc3)C2)c1 [Compound 20] | > 8

Same assay, conditions: Salmonella enterica subsp. enterica Typhimurium

Row | Compound | MIC [µg/mL]
38 | Cc1ccc(S(=O)(=O)N[C@@H]2CCN(Cc3ccc(OC4CC4)cc3)C2)cn1 [Compound 175] | > 8
39 | Cc1ccc(S(=O)(=O)N[C@@H]2CCN(Cc3ccc(OC(C)C)cc3)C2)cc1C#N [Compound 161] | > 8
40 | CC(C)Oc1ccc(CN2CC[C@@H](NS(=O)(=O)c3cnc4ccsc4c3)C2)cc1 [Compound 164] | > 8

Test system: E. coli MG1655
Assay: MIC, 20-strain panel
Assay type: cell-based
Details: Escherichia coli, MG1655, A: E. coli MG1655; read-out: MIC
Description: as §1, §2

Row | Compound | MIC [µg/mL]
41 | Cc1ccc(S(C)(=O)=O)cc1S(=O)(=O)N[C@@H]1CCN(Cc2ccc(OC(C)C)cc2)C1 [Compound 72] | > 8
42 | N#Cc1cccc(S(=O)(=O)N[C@@H]2CCN(Cc3ccc(SC(F)(F)F)cc3)C2)c1 [Compound 20] | > 8

Same assay, conditions: Escherichia coli, MG1655, E. coli MG1655; read-out: MIC

Row | Compound | MIC [µg/mL]
43 | Cc1ccc(S(=O)(=O)N[C@@H]2CCN(Cc3ccc(OC4CC4)cc3)C2)cn1 [Compound 175] | > 8
44 | Cc1ccc(S(=O)(=O)N[C@@H]2CCN(Cc3ccc(OC(C)C)cc3)C2)cc1C#N [Compound 161] | > 8
45 | CC(C)Oc1ccc(CN2CC[C@@H](NS(=O)(=O)c3cnc4ccsc4c3)C2)cc1 [Compound 164] | > 8

Test system: Staphylococcus saprophyticus subsp. saprophyticus
Assay: MIC, 20-strain panel
Assay type: cell-based
Details: not given
Description: as §1, §2

Row | Compound | MIC [µg/mL]
46 | Cc1ccc(S(C)(=O)=O)cc1S(=O)(=O)N[C@@H]1CCN(Cc2ccc(OC(C)C)cc2)C1 [Compound 72] | > 8
47 | Cc1ccc(S(=O)(=O)N[C@@H]2CCN(Cc3ccc(OC4CC4)cc3)C2)cn1 [Compound 175] | > 8
48 | Cc1ccc(S(=O)(=O)N[C@@H]2CCN(Cc3ccc(OC(C)C)cc3)C2)cc1C#N [Compound 161] | > 8
49 | N#Cc1cccc(S(=O)(=O)N[C@@H]2CCN(Cc3ccc(SC(F)(F)F)cc3)C2)c1 [Compound 20] | > 8
50 | CC(C)Oc1ccc(CN2CC[C@@H](NS(=O)(=O)c3cnc4ccsc4c3)C2)cc1 [Compound 164] | > 8

Test system: E. coli BW25113
Assay: MIC, microdilution in 96-well plates
Assay type: cell-based
Details: Escherichia coli, BW25113, B: E. coli BW25113; read-out: MIC
Summary of the method: (§3)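 CLSI microdilution, LB, 1:10000 inoculum of actively growing culture; 2-fold dilution series in triplicate, DMSO control lane; 37° C., shaking, 16-18 h; endpoint = no visible growth.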

Row | Compound | MIC [µg/mL]
51 | Cc1ccc(S(C)(=O)=O)cc1S(=O)(=O)N[C@@H]1CCN(Cc2ccc(OC(C)C)cc2)C1 [Compound 72] | > 8
52 | N#Cc1cccc(S(=O)(=O)N[C@@H]2CCN(Cc3ccc(SC(F)(F)F)cc3)C2)c1 [Compound 20] | > 8

Same assay, conditions: Escherichia coli, BW25113, E. coli BW25113; read-out: MIC

Row | Compound | MIC [µg/mL]
53 | Cc1ccc(S(=O)(=O)N[C@@H]2CCN(Cc3ccc(OC4CC4)cc3)C2)cn1 [Compound 175] | > 8
54 | Cc1ccc(S(=O)(=O)N[C@@H]2CCN(Cc3ccc(OC(C)C)cc3)C2)cc1C#N [Compound 161] | > 8
55 | CC(C)Oc1ccc(CN2CC[C@@H](NS(=O)(=O)c3cnc4ccsc4c3)C2)cc1 [Compound 164] | > 8

Test system: Edwardsiella tarda
Assay: MIC, microdilution in 96-well plates
Assay type: cell-based
Details: not given
Summary of the method: as §3

Row | Compound | MIC [µg/mL]
56 | Cc1ccc(S(=O)(=O)N[C@@H]2CCN(Cc3ccc(OC4CC4)cc3)C2)cn1 [Compound 175] | > 8
57 | Cc1ccc(S(=O)(=O)N[C@@H]2CCN(Cc3ccc(OC(C)C)cc3)C2)cc1C#N [Compound 161] | > 8
58 | CC(C)Oc1ccc(CN2CC[C@@H](NS(=O)(=O)c3cnc4ccsc4c3)C2)cc1 [Compound 164] | > 8

Same assay, conditions: D: Edwardsiella tarda

Row | Compound | MIC [µg/mL]
59 | Cc1ccc(S(C)(=O)=O)cc1S(=O)(=O)N[C@@H]1CCN(Cc2ccc(OC(C)C)cc2)C1 [Compound 72] | > 8
60 | N#Cc1cccc(S(=O)(=O)N[C@@H]2CCN(Cc3ccc(SC(F)(F)F)cc3)C2)c1 [Compound 20] | > 8
